Experimental data reported in patent publication US10723813B2, “PDGF-B /PDGF-BB binding variants of heparan sulfates” (Agency for Science, Technology and Research, priority 2015, dated 2020).
“Also recorded” adds a separate entry of the source.

Key:
Assay type in all cases: cell-based
[1] = system: human dermal fibroblasts (HDFs); assay: In vitro proliferation of HDFs (Example 15), with or without PDGFR/FGFR1 inhibitors; conditions: FIG. 30
Description: FIG. 29. Charts showing proliferative effect of PDGF-BB and HS6 on human dermal fibroblasts: (A) PDGF-BB (1, 2.5, 5, 10, 25 ng/ml), (B) HS6 (0.25, 0.5, 1, 2.5, 5, 10, 25 μg HS6), (C) 2.5 ng PDGF-BB+HS6 (0, 0.25, 0.5, 1, 2.5, 5, 10, 25 μg).
FIG. 30. Charts showing effect of PDGFR and FGFR inhibition. (A) Effect of PDGFR inhibitor JNJ-10198409; (B) Effect of FGFR1 inhibitor SU5402.

[2] = system: human dermal fibroblast (HDF); assay: HDF proliferation (Guava Viacount, 72 hrs)
Description: Proliferation Protocol: • 1. Thaw human dermal fibroblast (HDF, Cascade Biologics) into a T75 in maintenance medium at 5×10^3 cells/cm^2 (α-MEM, 10% FCS, P/S) at 37° C. 5% CO^2 humidified incubator. • 2. At 70-80% confluence, wash cells in PBS twice, add 1 ml of 0.125% trypsin and incubate for 3 mins. Tap the dish and stop the trypsin by adding 5 ml of medium. Centrifuge cells down at 180 g for 7 mins. • 3. Count total number of cells. • 4. Seed cells at 500 μl of 3000 cells/cm^2 cell suspension per well and place the plates into the incubator for 24 hrs. • 5. Change media to α-MEM, 1% FCS, P/S media for 24 hrs. • 6. Treat cells with PDGF-BB and HS fractions. • 7. After 72 hrs, wash cells with PBS and add 100 ul of trypsin, incubate for 3 mins. • 8. Add 100 ul of Guava Viacount dye mastermix into each well of trypsinize cells. • 9. Transfer total volume of 200 ul of cells per well into a 96 well Guava plate. Results:
The proliferation protocol described in Example 9 was used.

[3] = system: human dermal fibroblast (HDF); assay: HDF migration scratch assay (IncuCyte)
Description: Migration Protocol: • 1. Seed 10,000 HDF per well in maintenance media, into a 96 well ImageLock plate. • 2. After 24 hrs, change media to 1% α-MEM • 3. Once cells are confluent, scratch the surface using the wound maker and wash once with PBS. • 4. Add 100 μl of treatment media into each well and place plate into IncuCyte and run for 40 hours. • 5. Program is set up to take photo every 2 hours. Results:
The migration protocol from Example 11 was followed using a range of HS6+ doses (20 μg/mL, 40 μg/mL, 60 μg/mL) with 5 ng/ml PDGF-BB.

[4] = system: human N-TERT/1 keratinocytes; assay: Scratch wound assay on keratinocytes; conditions: confluent N-TERT/1, IncuCyte; increasing amounts (FIG. 31)

Q: How did the “Stimulation of proliferation in the presence of inhibitor” value [1] turn out when `COc1cc2c(cc1OC)-c1[nH]nc(Nc3cccc(F)c3)c1C2` [JNJ-10198409] was run?
A: very strongly inhibited

Q: For “PDGF-BB: homodimer of platelet-derived growth factor B; recombinant (R&D)”, which “HDF proliferation, dosing” value ([2]; 72 hrs, increasing concentration of the substance) is on record?
A: dose dependently increase HDF proliferation; also recorded: dose dependent increase in proliferation

Q: What about the “Optimal concentration for proliferation” value ([2]; HDF, 72 hrs) of the same compound?
A: 10 ng/mL

Q: And the “Viability of HDF” value ([2]; higher concentration of PDGF-BB)?
A: decreased viability

Q: And the “PDGF-BB concentration up to which rate of wound closure increases” value [3]?
A: up to 10 ng/mL

Q: And the “Rate of closure at more than 10 ng/mL PDGF-BB” value [3]?
A: does not speed up the rate of closure

Q: What about the “HDF migration, PDGF-BB dosing” value ([3]; PDGF-BB alone) of the same compound?
A: induces HDF migration

Q: And the “Closure of the scratch wound, keratinocytes” value [4]?
A: able to improve the closure

Q: Which “Stimulation of proliferation in the presence of inhibitor” value [1] does the source give for `Cc1c[nH]c(/C=C2\C(=O)Nc3ccccc32)c1CCC(=O)O` [SU5402] here?
A: also inhibited—but not as strongly
